What was measured:
PND5 rat cultures = experiment: Post natal day 5 rat cortical/subventricular zone cultures, immunostaining; assay type: cell-based
Protocol: The method of the invention is also exemplified by a second embodiment in which N-[4-[(4-fluorophenyl)sulfonyl]phenyl]acetamide is administered in vitro to tissue from postnatal mammals. Treatment with N-[4-[(4-fluorophenyl)sulfonyl]phenyl]acetamide results in neuroregeneration as evidenced by immunostaining for beta-tubulin, eNCAM and MAP II. Neural tissue harvested from Post Natal day 5 (PND5) animals can be prepared in culture by the method above used with E18 cells, except that the cultures are not treated with glutamate because the neurons are unable to survive the culture preparation step. Using an assay system, cells can be treated with N-[4-[(4-fluorophenyl)sulfonyl]phenyl]acetamide 24 hours after the cultures are established.
In one study, PND-5 day cultures generated from tissue isolated specifically from the subventricular zone were compared to cultures generated from the whole cortex. Twenty four hours after dissection, cultures were treated with the compound. Four weeks after treatment, cultures were immunostained with antibodies against β-tubulin or antibodies against MAP II.
Post natal day 5 rat pups (Taconic Labs) were decapitated, skin covering the cranium was removed so the bone over top the brain could be opened. Using a sterile spatula, the brain was extracted from the opened cranium and transferred to a 60 mm petri dish (Corning) containing sterile, ice cold Hank's balanced salt solution (HBSS). The meningial tissue was removed from the cortex, the cortex was gently teased away from the subcortical structures and transferred to a new 60 mm petri dish containing ice cold HBSS. Using a pair of fine, curved forceps, the desired cortical material was pinched from the remainder of the cortex and transferred to a new 60 mm petri dish containing ice cold HBSS. For most experiments, only tissue in the immediate vicinity of the subventricular zone was collected while in a few experiments, almost the entire cortex was pinched leaving only the outer most layer of cortical tissue behind. After harvesting all cortical tissue, the tissue was minced using two #11 scalpel blades that were repeatedly drawn across each other. After the majority of the tissue was minced into approximately 1 mm cubes, the HBSS was removed and replaced with 4 ml of trypsin/EDTA (Gibco—0.5%/5.3 mM) plus 1 ml of DNase (Sigma—0.01%). The petri dish containing tissue and enzymes were placed in a 37° C. incubator for 30 minutes and agitated every 5 minutes. After 30 minutes, the tissue was removed from the incubator and 1 ml 0.1 mg/ml of soybean trypsin inhibitor was added. Tissue was transferred to a 15 ml conical tube, spun at 500×g for 10 minutes in a refrigerated centrifuge. Supernatant was removed, the pellet was resuspended in 10 ml of DMEM+10% FBS, passed first through a 100 μm filter (Falcon) and finally through a 40 μm filter (Falcon). A cell count was performed to determine the final volume of media needed to yield a cell density of 1×10^6 viable cells per ml. Five hundred microliters of supernatant containing 5×10^5 viable cells was added to each well of 24 well cluster plates previously coated with 5 μg/ml poly lysine.
To remove the cellular debris, all plates were washed 24 hours after plating. Each plate was gently rocked several times, the media was removed and replaced with 1 ml of 37° C. DMEM. […]

[1] = test system: spinal cord of an injured recipient animal; experiment: Bone marrow cell implantation at spinal cord injury site with BrdU labelling; assay type: in vivo, rat; details: 12 weeks after implantation of bone marrow cells from orally treated donor
Protocol: In preferred embodiments, the invention relates to regenerating nerve tissue in vivo. Methods of the invention include administering a therapeutically effective dose of a composition of the invention to a first mammal in need of neural regeneration. In some embodiments, a compound of Formula (I) or Formula (II) is administered, preferably orally administered, to a mammal in need of tissue regeneration, preferably neural tissue regeneration. In some embodiments, methods of the invention comprise administering a compound of Formula (I) or Formula (II) to a first mammal, harvesting cells from the first mammal after administration of the compound and subsequently delivering the harvested cells locally at a site where increased neural expression or increased neural regeneration is needed, wherein the injury site can be in the first mammal or in a second mammal. In some embodiments, the compositions of the invention can be administered intralesionally. Preferably, the harvested cells are from any type of stem cell, for example bone marrow cells. For example, bone marrow cells can be collected from a donor animal (e.g., a rat) within two weeks, preferably within three to seven days, after oral administration of N-[4-[(4-fluorophenyl)sulfonyl]phenyl]acetamide in a pharmaceutically acceptable carrier to the donor animal. […]

bone marrow cells = experiment: Nestin expression in bone marrow cells after systemic administration; assay type: in vivo, rat; details: bone marrow harvested 3-7 days after systemic administration; vs non-treated rats
Excerpt: In some embodiments of the invention, cells, preferably bone marrow cells, can be transferred from a first animal treated according to methods of the invention to a site of chronic spinal cord injury in the first animal or in a second animal.

[2] = study of subventricular zone vs whole cortex cultures, four weeks after treatment

Structure (SMILES): CC(=O)Nc1ccc(S(=O)(=O)c2ccc(F)cc2)cc1 [N-[4-[(4-fluorophenyl)sulfonyl]phenyl]acetamide]
- number of β-tubulin positive cells (PND5 rat cultures; four weeks post treatment, vs untreated control wells): increased numbers of β-tubulin positive cells
- eNCAM expression (PND5 rat cultures; one week post treatment, vs untreated control samples): Enhanced expression of eNCAM
- MAP-II expression (PND5 rat cultures; six weeks post treatment, vs untreated control samples): MAP-II expression is enhanced
- number of MAP II positive cells (PND5 rat cultures; [2]): Greater numbers
- number of β-tubulin positive cells (PND5 rat cultures; [2]): Greater numbers
- BrdU incorporation and expression of nestin, beta-tubulin and GFAP in spinal cord tissue [1]: shows incorporation of BrdU in cell nuclei, as well as expression of nestin, beta-tubulin and GFAP
- expression of Nestin in bone marrow cells (bone marrow cells): increased expression of Nestin

From patent publication US7271187B2, “Compositions and methods for promoting tissue regeneration” (priority 2000, dated 2007)
